Laboratory results from PMC12680558, “Design, Synthesis, In Silico Absorption, Distribution, Metabolism, and Elimination and Molecular Docking Studies of Thiazole‐Based Furan Derivatives, and Their Biological Evaluation for Alzheimer Disease Therapy” (ChemistryOpen, 2025).
Values joined by “and” are separate entries in the source; they are usually repeats but may differ in a detail not shown here. Equal values may be shown once.

Columns and labels:
[1] = DPPH radical scavenging assay; conditions: 2 µg mL^−1
Description: (§1) The methods outlined by Blois and Re were used to assess the DPPH^ · and ABTS^+· free radical scavenging activities, respectively.^[ [58], [59] ^– [60] ^] A series of stock concentrations of synthesized thiazole‐based furan derivatives (2a‐2m) was prepared. For DPPH assay, a radical solution of 1 mM DPPH solution was prepared. Final concentrations were adjusted by diluting the sample stock solutions with ethanol to a total volume of 2 mL and then adding 0.5 mL of DPPH solution to each tube. The mixtures were incubated at room temperature and protected from light for 30 min. Absorbance was measured at 517 nm. In the ABTS test, 7 mM ABTS solution was prepared, and radical cations were formed by adding 2.45 mM persulfate. The absorbance of the control solution was adjusted to 0.700 ± 0.025 at 734 nm. For analysis, 0.5 mL of ABTS^+· radical solution was added to each sample. The absorbance at 734 nm was then measured against the blank solution following a 30 min incubation period.

[2] = ABTS radical scavenging assay; conditions: 2 µg mL^−1
Description: as §1

AChE = biological target: T1, AChE (Electrophorus electricus, UniProt O42275); test: biochemical; conditions: for Ki: Lineweaver–Burk plots; for AChE/BChE SI (selectivity index): SI = KI (AChE)/KI (BChE); for IC50: substrate ATChI, 37 °C
T1 construct: AChE (from electric eels); from tissue
T1 sequence (O42275 24-633): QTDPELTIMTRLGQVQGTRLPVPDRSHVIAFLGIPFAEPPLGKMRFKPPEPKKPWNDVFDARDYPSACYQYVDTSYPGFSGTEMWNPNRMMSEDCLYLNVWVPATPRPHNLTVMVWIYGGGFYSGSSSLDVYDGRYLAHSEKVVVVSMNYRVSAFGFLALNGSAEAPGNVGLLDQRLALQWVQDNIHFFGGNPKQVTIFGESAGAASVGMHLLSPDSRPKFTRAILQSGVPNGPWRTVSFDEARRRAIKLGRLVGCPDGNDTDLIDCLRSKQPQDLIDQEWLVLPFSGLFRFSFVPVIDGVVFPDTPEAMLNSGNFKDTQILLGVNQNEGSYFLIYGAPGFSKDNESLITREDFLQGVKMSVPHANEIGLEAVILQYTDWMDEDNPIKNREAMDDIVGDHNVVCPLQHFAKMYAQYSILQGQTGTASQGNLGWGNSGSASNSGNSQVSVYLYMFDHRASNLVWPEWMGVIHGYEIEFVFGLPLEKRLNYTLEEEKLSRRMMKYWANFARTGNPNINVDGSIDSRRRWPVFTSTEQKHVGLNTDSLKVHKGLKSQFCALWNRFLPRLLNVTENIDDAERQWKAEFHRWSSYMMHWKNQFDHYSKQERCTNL
Description: Activity variations were tracked at 37 °C using acetylthiocholine iodide (ATChI) as a substrate for AChE (from electric eels) and butyrylcholine iodide (BChI) as a substrate for BChE (from horse serum).
Using at least five different inhibitor concentrations against the AChE and BChE enzymes, the inhibitory effects of thiazole‐based furan derivatives were assessed across a range of inhibitor doses. […] Furthermore, Lineweaver–Burk plots were used to assess inhibition types and inhibition constants (K I), providing thorough information on the kinetic behavior of these inhibitors.^[ [64] ^, [65] ^]

BChE = biological target: T2, BChE (Equus caballus, UniProt P81908); test: biochemical; conditions: for Ki: Lineweaver–Burk plots; for IC50: substrate BChI, 37 °C
T2 construct: BChE (from horse serum); from tissue; host or cells: horse serum
T2 sequence (P81908 whole entry): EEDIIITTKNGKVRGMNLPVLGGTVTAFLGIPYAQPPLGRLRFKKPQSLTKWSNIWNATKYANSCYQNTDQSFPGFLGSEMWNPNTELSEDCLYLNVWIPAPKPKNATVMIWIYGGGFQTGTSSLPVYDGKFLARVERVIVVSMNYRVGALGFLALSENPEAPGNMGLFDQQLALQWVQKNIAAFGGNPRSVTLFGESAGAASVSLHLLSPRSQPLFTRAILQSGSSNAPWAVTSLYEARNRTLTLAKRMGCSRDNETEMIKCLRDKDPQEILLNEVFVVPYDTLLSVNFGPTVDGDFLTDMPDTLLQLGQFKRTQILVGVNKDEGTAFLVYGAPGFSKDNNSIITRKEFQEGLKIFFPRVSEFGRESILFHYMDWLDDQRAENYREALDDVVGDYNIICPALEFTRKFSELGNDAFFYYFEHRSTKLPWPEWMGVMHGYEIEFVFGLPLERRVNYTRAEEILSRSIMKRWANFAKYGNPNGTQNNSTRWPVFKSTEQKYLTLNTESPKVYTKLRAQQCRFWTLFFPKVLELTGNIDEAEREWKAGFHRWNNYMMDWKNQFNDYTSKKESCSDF

SMILES	DPPH percent radical scavenging [1]	ABTS percent radical scavenging [2]	Ki (AChE) [µM]	AChE/BChE SI (selectivity index) (AChE)	IC50 (AChE) [µM]	Ki (BChE) [µM]	IC50 (BChE) [µM]
OCc1ccc(C=NNc2nc(-c3ccccc3)cs2)o1 [2j, 4‐Phenyl‐2‐(2‐((5‐hydroxymethylfuran‐2‐yl)methylene)hydrazineyl)thiazole]	9.057 ± 0.834%	28.158 ± 2.075%	42.5 ± 3.49	3.134	61.9	13.6 ± 1.05	19.7
Cc1ccc(-c2csc(NN=Cc3ccc(CO)o3)n2)cc1 [2g, 4‐(4‐Methylphenyl)‐2‐(2‐((5‐Hydroxymethylfuran‐2‐Yl)methylene)hydrazineyl)thiazole]	4.067 ± 0.289%	11.053 ± 1.012%	36.7 ± 2.56	2.847	53.3	12.9 ± 1.21	18.7
OCc1ccc(C=NNc2nc(-c3ccc(Cl)cc3Cl)cs2)o1 [2l, 4‐(2,4‐Dichlorophenyl)‐2‐(2‐((5‐Hydroxymethylfuran‐2‐Yl)methylene)hydrazineyl) Thiazole]	4.436 ± 0.386%	21.053 ± 1.793%	42.1 ± 3.79	7.345	61.3	5.74 ± 0.384	8.35
OCc1ccc(C=NNc2nc(-c3ccc(Br)cc3)cs2)o1 [2f, 4‐(4‐Bromophenyl)‐2‐(2‐((5‐Hydroxymethylfuran‐2‐Yl)methylene)hydrazineyl)thiazole]	7.579 ± 0.648%	22.107 ± 1.728%	26.5 ± 1.81	5.557	38.5	4.76 ± 0.321	6.93
COc1ccc(-c2csc(NN=Cc3ccc(CO)o3)n2)cc1 [2b, 4‐(4‐Methoxyphenyl)‐2‐(2‐((5‐Hydroxymethylfuran‐2‐Yl)methylene)hydrazineyl)thiazole]	1.109 ± 0.762%	2.105 ± 0.176%	14.5 ± 1.12	0.609	21.1	23.82 ± 0.132	34.7
OCc1ccc(C=NNc2nc(-c3ccc(-c4ccccc4)cc3)cs2)o1 [2e, 4‐([1,1^′‐Biphenyl]‐4‐Yl)‐2‐(2‐((5‐Hydroxymethylfuran‐2‐Yl)methylene)hydrazineyl) Thiazole]	4.621 ± 0.372%	17.105 ± 1.248%	34 ± 2.1	5.287	49.5	6.44 ± 0.452	9.36
OCc1ccc(C=NNc2nc(-c3ccc(Cl)cc3)cs2)o1 [2k, 4‐(4‐Chlorophenyl)‐2‐(2‐((5‐hydroxymethylfuran‐2‐yl)methylene)hydrazineyl)thiazole]	6.470 ± 0.574%	11.842 ± 0.982%	39.4 ± 3.25	4.629	57.3	8.51 ± 0.684	12.4
N#Cc1ccc(-c2csc(NN=Cc3ccc(CO)o3)n2)cc1 [2c, 4‐(4‐Cyanophenyl)‐2‐(2‐((5‐Hydroxymethylfuran‐2‐Yl)methylene)hydrazineyl)thiazole]	3.512 ± 0.237%	15.789 ± 1.365%	31.8 ± 2.86	3.334	46.2	9.53 ± 0.824	13.9
Cc1c(C)c2c(c(C)c1O)CCC(C)(C(=O)O)O2 (stereo not drawn) [Trolox, reference compound]	13.863 ± 1.023%	29.211 ± 2.043%	–	–	–	–	–
OCc1ccc(C=NNc2nc(-c3ccc(F)cc3F)cs2)o1 [2i, 4‐(2,4‐Difluorophenyl)‐2‐(2‐((5‐Hydroxymethylfuran‐2‐Yl)methylene)hydrazineyl) Thiazole]	13.309% and 13.309 ± 1.278%	31.842% and 31.842 ± 2.785%	43.4 ± 3.56	6.650	63.1	6.52 ± 0.428	9.49
OCc1ccc(C=NNc2nc(-c3ccc(Cl)c(Cl)c3)cs2)o1 [2h, 4‐(3,4‐Dichlorophenyl)‐2‐(2‐((5‐Hydroxymethylfuran‐2‐Yl)methylene)hydrazineyl) Thiazole]	5.361 ± 0.486%	12.106 ± 1.036%	26.7 ± 2.04	3.257	38.9	8.21 ± 0.722	11.9
O=[N+]([O-])c1cccc(-c2csc(NN=Cc3ccc(CO)o3)n2)c1 [2m, 4‐(3‐Nitrophenyl)‐2‐(2‐((5‐Hydroxymethylfuran‐2‐Yl)methylene)hydrazineyl)thiazole]	11.275 ± 1.021%	30.789 ± 2.489%	59.6 ± 4.82	4.001	86.6	14.9 ± 1.35	21.7
OCc1ccc(C=NNc2nc(-c3ccc(F)cc3)cs2)o1 [2d, 4‐(4‐Fluorophenyl)‐2‐(2‐((5‐Hydroxymethylfuran‐2‐Yl)methylene)hydrazineyl)thiazole]	1.848 ± 0.095%	6.316 ± 0.584%	36.7 ± 3.22	4.925	53.3	7.44 ± 0.565	10.8
O=[N+]([O-])c1ccc(-c2csc(NN=Cc3ccc(CO)o3)n2)cc1 [2a, 4‐(4‐Nitrophenyl)‐2‐(2‐((5‐hydroxymethylfuran‐2‐yl)methylene)hydrazineyl)thiazole]	12.202% and 12.202 ± 0.965%	56.842% and 56.842 ± 4.346%	14.9 ± 1.05	2.469	21.7	6.03 ± 0.523	8.77
